Measured values as given in article PMC12406652 (Antimicrobial Agents and Chemotherapy, 2025).
Marks after values point to notes of the source that are not given here.

Assays:
[1] = Plasma pharmacokinetics after single ascending doses of LED-E (VNRX-7145-101 Part 1); assay type: in vivo; conditions: human, oral; for Vd/F: read-out: Vz/F; for Tmax: median (range)
Description: (§1) Quantitation used separate weighted 1 /x^2 linear least-squares regression analyses generated from calibration standards. Exploratory screening for metabolites was performed for some samples. […] Single-dose plasma pharmacokinetic parameters were determined in Part 1, and both single-dose (Day 1) and multiple-dose (Day 12) parameters were determined in Part 2. […] Dose proportionality was analyzed using a power model in which pharmacokinetic exposure parameters and dose were converted to the natural log and linear regression results were reported, with the slope as the power estimate ([15]). […] In Part 2, achievement of steady-state concentrations was assessed using Tukey’s multiple comparison test for pre-dose and all dosing days (Days 2 to 10) for each dose level separately. In both studies, plasma pharmacokinetic parameters were calculated using WinNonlin (Certara; Radnor, PA), and urine pharmacokinetic parameters were calculated using SAS (SAS Institute; Cary, NC).

[2] = Plasma pharmacokinetics on Day 10 after multiple doses of LED-E q8h (VNRX-7145-101 Part 2, VNRX-7145-102 Part 2); assay type: in vivo, human; conditions: human, oral, plasma; for AUC / Cmax / Vd/F / half-life: geometric mean (CV %); for Vd/F: read-out: Vz/F; for Tmax: median (range); for half-life: read-out: t1/2 (converted)
Description: as §1, with “Single-dose plasma pharmacokinetic parameters were determined in Part 1, and both single-dose (Day 1) and multiple-dose (Day 12) parameters were determined in Part 2.” left out, “separately. […] Plasma pharmacokinetic parameters were calculated using noncompartmental analysis of the plasma and urine concentration-time data. […] AUCinf and Cmax were natural log-transformed before analysis, using a linear mixed effects model. […]” for “separately.”

[3] = Urinary pharmacokinetics after single doses of LED-E; assay type: in vivo, human; conditions: urine, geometric mean (geometric CV %); for CL renal: human, oral
Description: Plasma and urine pharmacokinetics samples were assayed for LED-E, LED, and CTB, as appropriate using validated bioanalytical methods. […] Quantitation used separate weighted 1 /x^2 linear least-squares regression analyses generated from calibration standards. Exploratory screening for metabolites was performed for some samples. In both studies, plasma pharmacokinetic parameters were calculated using WinNonlin (Certara; Radnor, PA), and urine pharmacokinetic parameters were calculated using SAS (SAS Institute; Cary, NC).

[4] = Urinary pharmacokinetics on Day 10 after multiple doses of LED-E q8h; assay type: in vivo, human; conditions: urine, geometric mean (geometric CV %); for CL renal: human, oral
Description: Quantitation used separate weighted 1 /x^2 linear least-squares regression analyses generated from calibration standards. Exploratory screening for metabolites was performed for some samples. […] Plasma pharmacokinetic parameters were calculated using noncompartmental analysis of the plasma and urine concentration-time data. […] AUCinf and Cmax were natural log-transformed before analysis, using a linear mixed effects model. […] In both studies, plasma pharmacokinetic parameters were calculated using WinNonlin (Certara; Radnor, PA), and urine pharmacokinetic parameters were calculated using SAS (SAS Institute; Cary, NC).

[5] = Urinary recovery on Day 10 after multiple doses of CTB + LED-E q8h (VNRX-7145-102 Part 3); conditions: for Ae0–8 / Fe0–8 / CL renal: urine, geometric mean (geometric CV %); for CL renal: human, oral, CLr
[6] = Drug-drug interaction, single dose CTB 400 mg + LED-E 500 mg, cross-over (VNRX-7145-102 Part 1); conditions: human, plasma, oral
[7] = Plasma pharmacokinetics on Day 10 after multiple doses of CTB + LED-E q8h (VNRX-7145-102 Part 3); conditions: for AUC: AUCtau; for AUC / Cmax / half-life: geometric mean (CV %)
[8] = 1000 mg, single dose LED-E 1,000 mg, geometric mean (CV %)
[9] = single dose LED-E 100 mg, geometric mean (CV %)
[10] = single dose LED-E 200 mg, geometric mean (CV %)
[11] = single dose LED-E 300 mg, geometric mean (CV %)
[12] = single dose LED-E 500 mg, geometric mean (CV %)
[13] = single dose LED-E 800 mg, geometric mean (CV %)
[14] = multiple doses LED-E 500 mg q8h, after last dose (Day 10)
[15] = Day 10, CTB 400 mg + LED-E 300 mg q8h
[16] = Day 10, CTB 400 mg + LED-E 500 mg q8h
[17] = human, oral, Day 10, CTB 400 mg + LED-E 300 mg q8h
[18] = human, oral, Day 10, CTB 400 mg + LED-E 500 mg q8h

Structure (SMILES): CCC(=O)N[C@H]1Cc2cccc(C(=O)OCOC(=O)C(CC)CC)c2OB1O [Ledaborbactam etzadroxil]
- AUC(0-inf) [1, 8]: 2300 ng·h/mL
- Cmax [1, 8]: 1840 ng/mL
- Vd/F [1, 8]: 2880 L
- half-life ([1]; 1000 mg, single dose LED-E 1,000 mg, geometric mean (CV %), read-out: t1/2 (converted)): 4.59 h
- half-life ([1]; across single doses LED-E 100 to 1,000 mg, read-out: Geometric mean t1/2): 2.8 to 4.7 h
- AUC(0-inf) [1, 9]: 177 ng·h/mL
- Cmax [1, 9]: 167 ng/mL
- Vd/F [1, 9]: 2290 L
- half-life ([1]; single dose LED-E 100 mg, geometric mean (CV %), read-out: t1/2 (converted)): 2.81 h
- Tmax ([1]; single dose LED-E 100 mg): 0.5 h
- AUC(0-inf) [1, 10]: 249 ng·h/mL
- Cmax [1, 10]: 167 ng/mL
- half-life ([1]; single dose LED-E 200 mg, geometric mean (CV %), read-out: t1/2 (converted)): 3.34 h
- Tmax ([1]; single dose LED-E 200 mg): 0.5 h
- AUC(0-inf) [1, 11]: 439 ng·h/mL
- Cmax [1, 11]: 347 ng/mL
- half-life ([1]; single dose LED-E 300 mg, geometric mean (CV %), read-out: t1/2 (converted)): 3.63 h
- Tmax ([1]; single dose LED-E 300 mg): 0.5 h
- AUC(0-inf) [1, 12]: 1290 ng·h/mL
- Cmax [1, 12]: 917 ng/mL
- Vd/F [1, 12]: 2640 L
- half-life ([1]; single dose LED-E 500 mg, geometric mean (CV %), read-out: t1/2 (converted)): 4.7 h
- AUC(0-inf) [1, 13]: 1720 ng·h/mL
- Cmax [1, 13]: 1160 ng/mL
- Vd/F [1, 13]: 2260 L
- half-life ([1]; single dose LED-E 800 mg, geometric mean (CV %), read-out: t1/2 (converted)): 3.37 h
- Tmax ([1]; single dose LED-E 800 mg): 0.5 h
- AUC ([2]; Day 10, LED-E 75 mg q8h, 0 to 8 h post-dose): 85.5 ng·h/mL
- Cmax ([2]; Day 10, LED-E 75 mg q8h): 122 ng/mL
- Vd/F ([2]; Day 10, LED-E 75 mg q8h): 3880 L
- Tmax ([2]; Day 10, LED-E 75 mg q8h): 0.5 h
- AUC ([2]; Day 10, LED-E 150 mg q8h): 309 ng·h/mL
- Cmax ([2]; Day 10, LED-E 150 mg q8h): 447 ng/mL
- Vd/F ([2]; Day 10, LED-E 150 mg q8h): 3350 L
- Tmax ([2]; Day 10, LED-E 150 mg q8h): 0.5 h
- AUC ([2]; Day 10, LED-E 300 mg q8h): 480 ng·h/mL
- Cmax ([2]; Day 10, LED-E 300 mg q8h): 629 ng/mL
- Vd/F ([2]; Day 10, LED-E 300 mg q8h): 6080 L
- Tmax ([2]; Day 10, LED-E 300 mg q8h): 0.5 h
- AUC ([2]; Day 10, LED-E 500 mg q8h): 1050 ng·h/mL
- Cmax ([2]; Day 10, LED-E 500 mg q8h): 919 ng/mL
- Vd/F ([2]; Day 10, LED-E 500 mg q8h): 6290 L
- half-life ([2]; 75 mg, Day 10, LED-E 75 mg q8h): 3.07 h
- half-life ([2]; 150 mg, Day 10, LED-E 150 mg q8h): 4.78 h
- half-life ([2]; 300 mg, Day 10, LED-E 300 mg q8h): 6.75 h
- half-life ([2]; 500 mg, Day 10, LED-E 500 mg q8h): 9.14 h
- CL renal ([3]; single dose LED-E 300 mg): 0.22 mL/min
- CL renal ([3]; single dose LED-E 500 mg): 0.275 mL/min
- CL renal ([3]; single dose LED-E 800 mg): 0.292 mL/min
- CL renal ([3]; single dose LED-E 1000 mg): 0.393 mL/min
- Ae0–8 ([3]; single dose LED-E 300 mg): 0.00779 (51.0) mg
- Ae0–8 ([3]; single dose LED-E 500 mg): 0.0212 (38.4) mg
- Ae0–48 ([3]; single dose LED-E 500 mg): 0.0212 (38.4) mg
- Ae0–8 ([3]; single dose LED-E 800 mg): 0.0301 (49.2) mg
- Ae0–48 ([3]; single dose LED-E 800 mg): 0.0301 (49.2) mg
- Ae0–8 ([3]; single dose LED-E 1000 mg): 0.0542 (68.6) mg
- Ae0–48 ([3]; single dose LED-E 1000 mg): 0.0542 (68.6) mg
- CL renal ([4]; multiple doses LED-E 150 mg q8h): 0.247 mL/min
- CL renal ([4]; multiple doses LED-E 300 mg q8h): 0.121 mL/min
- CL renal ([4]; multiple doses LED-E 500 mg q8h): 0.433 mL/min
- Ae0–48 ([4]; multiple doses LED-E 75 mg q8h, after last dose (Day 10)): below the limit of quantification
- Ae0–48 ([4]; multiple doses LED-E 150 mg q8h, after last dose (Day 10)): 0.00488 (47.9) mg
- Ae0–48 ([4]; multiple doses LED-E 300 mg q8h, after last dose (Day 10)): 0.00378 (218) mg
- Ae0–8 [4, 14]: 0.0273 (38.5) mg
- Ae0–48 [4, 14]: 0.0273 (38.5) mg
- Ae0–48 ([4]; multiple doses LED-E 500 mg q8h, after last dose (Day 10), listed as LED-E): 0.03 mg
- Ae0–8 [5, 15]: 0.0113 (41.4) mg
- Fe0–8 [5, 15]: 0.00377 (41.4) %
- Ae0–8 [5, 16]: 0.0271 (58.4)^d mg
- Fe0–8 [5, 16]: 0.00542 (58.4)^d %
- Fe0-8 recovered in urine, of the last dose ([5]; Day 10, across CTB 400 mg + LED-E 300 mg q8h and CTB 400 mg + LED-E 500 mg q8h): less than 0.01%
- CL renal [5, 15]: 0.402 mL/min
- CL renal [5, 16]: 0.42 mL/min
- AUC(0-inf) [6]: 1070 ng·h/mL
- Cmax [6]: 787 ng/mL
- AUC(0-inf) ([6]; 500 mg): 1140 ng·h/mL
- Cmax ([6]; 500 mg): 1040 ng/mL
- Change in geometric mean AUCtau from the first to the last dose ([7]; Day 10, CTB 400 mg + LED-E 300 or 500 mg q8h, both dose groups): unchanged
- AUC [7, 17]: 463 ng·h/mL
- AUC [7, 18]: 1090 ng·h/mL
- Cmax [7, 17]: 467 ng/mL
- Cmax [7, 18]: 1180 ng/mL
- Tmax ([7]; human, oral, Tmax, Day 10, CTB 400 mg + LED-E 300 mg q8h, median (range)): 0.5 h
- half-life ([7]; human, oral, t1/2, Day 10, CTB 400 mg + LED-E 300 mg q8h): 7.68 h
- half-life ([7]; human, oral, t1/2, Day 10, CTB 400 mg + LED-E 500 mg q8h): 10.7 h
